Data as given in the NIST ThermoML archive (doi:10.1016/j.tca.2014.07.018).
“And” between values parts separate entries of the source, which are not always exact repeats. Equal entries are not always repeated.

Conditions: Crystal; for molar entropy / mass density: 101.33 kPa; for molar entropy: Small (less than 1 g) adiabatic calorimetry; for vapor or sublimation pressure: Calculated from knudsen effusion weight loss

C1C2CC3CC1CC(c1nnn[nH]1)(C2)C3 [5-(1-adamantyl)tetrazole]
Conditions	Normal melting temperature [°C]	molar entropy [J/K/mol]	vapor or sublimation pressure
5 K	–	0.1627	–
10 K	–	1.359	–
15 K	–	4.002	–
20 K	–	7.655	–
25 K	–	11.89	–
30 K	–	16.44	–
35 K	–	21.13	–
40 K	–	25.84	–
45 K	–	30.53	–
50 K	–	35.17	–
60 K	–	44.22	–
70 K	–	52.95	–
80 K	–	61.41	–
90 K	–	69.64	–
100 K	–	77.69	–
120 K	–	93.37	–
140 K	–	108.7	–
160 K	–	123.8	–
180 K	–	138.9	–
200 K	–	154	–
220 K	–	169.4	–
240 K	–	185	–
260 K	–	200.8	–
280 K	–	216.8	–
298.15 K	–	231.5	–
300 K	–	232.9	–
320 K	–	249	–
340 K	–	265	–
360 K	–	281	–
370 K	–	289	–
393.68 K	–	–	5.34e-05 kPa
398.71 K	–	–	8.43e-05 kPa and 8.47e-05 kPa
403.71 K	–	–	0.0001344 kPa
403.72 K	–	–	0.0001377 kPa
403.74 K	–	–	0.0001377 kPa
408.72 K	–	–	0.0002136 kPa and 0.0002121 kPa
408.74 K	–	–	0.0002167 kPa
413.74 K	–	–	0.0003204 kPa
413.75 K	–	–	0.0003212 kPa
413.76 K	–	–	0.0003363 kPa
418.74 K	–	–	0.0005125 kPa
418.77 K	–	–	0.0005047 kPa
418.8 K	–	–	0.000516 kPa
visual observation	251.00	–	–

Conditions	mass density [kg/m3]
100 K, X-ray diffraction	1308
292.15 K, Pycnometric method	1470
